Measured values from ChEMBL document CHEMBL1135793 (J Med Chem, 2002).
Positions of bridges follow the written chain, without caps; N, C: chain ends. Non-standard residues stand in square brackets, D forms with d. Residues, ends and D or L forms follow the SMILES beside them. Nle = CCCC[C@H](N)C(=O)O

Target: Urokinase plasminogen activator surface receptor (Homo sapiens, UniProt Q03405)
Test: Inhibitory activity against human Urokinase plasminogen activator receptor (uPAR) was determined

Urokinase plasminogen activator surface receptor, sequence (Q03405 whole entry): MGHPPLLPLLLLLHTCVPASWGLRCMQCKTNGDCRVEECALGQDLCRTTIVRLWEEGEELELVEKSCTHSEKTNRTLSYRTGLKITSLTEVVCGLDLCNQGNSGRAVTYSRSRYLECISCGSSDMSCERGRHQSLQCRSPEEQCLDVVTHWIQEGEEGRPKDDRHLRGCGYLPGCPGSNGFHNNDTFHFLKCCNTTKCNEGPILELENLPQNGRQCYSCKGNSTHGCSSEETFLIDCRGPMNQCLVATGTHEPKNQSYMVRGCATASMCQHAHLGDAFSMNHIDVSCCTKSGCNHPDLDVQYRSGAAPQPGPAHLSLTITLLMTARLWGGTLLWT

Structure (SMILES) | IC50 [nM]
CC[C@H](C)[C@@H]1NC(=O)[C@H](CC(N)=O)NC(=O)[C@H](CO)NC(=O)[C@H](Cc2ccccc2)NC(=O)[C@H](Cc2ccc(O)cc2)NC(=O)[C@@H](CCCCN)NC(=O)[C@H](CC(N)=O)NC(=O)[C@@H](N)CSSC[C@@H](C(=O)N[C@@H](Cc2c[nH]c3ccccc23)C(=O)O)NC1=O | > 30000
CC[C@H](C)[C@@H]1NC(=O)[C@H](CC(N)=O)NC(=O)[C@H](CO)NC(=O)[C@H](Cc2ccccc2)NC(=O)[C@H](Cc2ccc3ccccc3c2)NC(=O)[C@H](CCCCN)NC(=O)[C@H](CC(N)=O)NC(=O)[C@H](N)CSSC[C@@H](C(=O)N[C@@H](Cc2c[nH]c3ccccc23)C(=O)O)NC1=O | 80
CC[C@H](C)[C@@H]1NC(=O)[C@H](CC(N)=O)NC(=O)[C@H](CO)NC(=O)[C@H](Cc2ccccc2)NC(=O)[C@H](Cc2ccc(O)cc2)NC(=O)[C@H](CCCCN)NC(=O)[C@H](CC(N)=O)NC(=O)[C@@H](N)CSSC[C@@H](C(=O)N[C@@H](Cc2c[nH]c3ccccc23)C(=O)O)NC1=O | 900
CC[C@H](C)[C@@H]1NC(=O)[C@H](CC(N)=O)NC(=O)[C@@H](CO)NC(=O)[C@H](Cc2ccccc2)NC(=O)[C@H](Cc2ccc(O)cc2)NC(=O)[C@H](CCCCN)NC(=O)[C@H](CC(N)=O)NC(=O)[C@@H](N)CSSC[C@@H](C(=O)N[C@@H](Cc2c[nH]c3ccccc23)C(=O)O)NC1=O | > 30000
CC[C@H](C)[C@@H]1NC(=O)[C@H](CC(N)=O)NC(=O)[C@H](CO)NC(=O)[C@H](Cc2ccccc2)NC(=O)[C@H](Cc2ccc(O)cc2)NC(=O)[C@H](CCCCN)NC(=O)[C@H](CC(N)=O)NC(=O)[C@H](CO)NC(=O)[C@H](C(C)C)NC(=O)[C@H](N)CSSC[C@@H](C(=O)O)NC(=O)[C@H](Cc2c[nH]c3ccccc23)NC(=O)[C@H](Cc2c[nH]cn2)NC1=O | 200
CC[C@H](C)[C@@H]1NC(=O)[C@H](CC(N)=O)NC(=O)[C@H](CO)NC(=O)[C@H](Cc2ccccc2)NC(=O)[C@H](Cc2cccc3ccccc23)NC(=O)[C@H](CCCCN)NC(=O)[C@H](CC(N)=O)NC(=O)[C@H](N)CSSC[C@@H](C(=O)N[C@@H](Cc2c[nH]c3ccccc23)C(=O)O)NC1=O | 50
CC[C@H](C)[C@@H]1NC(=O)[C@H](CC(N)=O)NC(=O)[C@H](CO)NC(=O)[C@H](Cc2ccccc2)NC(=O)[C@H](Cc2ccc(O)cc2)NC(=O)[C@H](CCCCN)NC(=O)[C@H](CC(N)=O)NC(=O)[C@H](CO)NC(=O)[C@H](C(C)C)NC(=O)[C@@H](N)CSSC[C@@H](C(=O)O)NC(=O)[C@H](Cc2c[nH]c3ccccc23)NC(=O)[C@H](Cc2c[nH]cn2)NC1=O | 700
CC[C@H](C)[C@@H]1NC(=O)[C@H](CC(N)=O)NC(=O)[C@H](CO)NC(=O)[C@H](Cc2ccccc2)NC(=O)[C@H](Cc2ccc(O)cc2)NC(=O)[C@H](CCCCN)NC(=O)[C@H](CC(N)=O)NC(=O)[C@H](N)CSSC[C@@H](C(=O)N[C@@H](Cc2c[nH]c3ccccc23)C(=O)O)NC1=O | 40
CC[C@H](C)[C@@H]1NC(=O)[C@@H](CC(N)=O)NC(=O)[C@H](CO)NC(=O)[C@H](Cc2ccccc2)NC(=O)[C@H](Cc2ccc(O)cc2)NC(=O)[C@H](CCCCN)NC(=O)[C@H](CC(N)=O)NC(=O)[C@@H](N)CSSC[C@@H](C(=O)N[C@@H](Cc2c[nH]c3ccccc23)C(=O)O)NC1=O | > 30000
CC[C@H](C)[C@@H]1NC(=O)[C@H](CC(N)=O)NC(=O)[C@H](CO)NC(=O)[C@H](Cc2ccccc2)NC(=O)[C@H](Cc2ccc(O)cc2)NC(=O)[C@H](CCCCN)NC(=O)[C@@H](CC(N)=O)NC(=O)[C@@H](N)CSSC[C@@H](C(=O)N[C@@H](Cc2c[nH]c3ccccc23)C(=O)O)NC1=O | > 30000
CCCC[C@@H]1NC(=O)[C@H](CC(N)=O)NC(=O)[C@H](N)CSSC[C@@H](C(=O)N[C@@H](Cc2c[nH]c3ccccc23)C(=O)O)NC(=O)[C@H]([C@@H](C)CC)NC(=O)[C@H](CC(N)=O)NC(=O)[C@H](CO)NC(=O)[C@H](Cc2ccccc2)NC(=O)[C@H](Cc2ccc(O)cc2)NC1=O (H-[dC]N[Nle]YFSNICW-OH; disulfide 1-9) | 60
